# Laboratory results taken from ChEMBL document CHEMBL5678810.
# How the values were obtained:
# [1] = tested on: Phosphatidylinositol 4,5-bisphosphate 3-kinase catalytic subunit alpha isoform (Homo sapiens), P42336 [H1047Y]; assay: Inhibition of T7 bacteriophage fused human PIK3CA H1047Y mutant at 10 uM by KINOMEscan analysis relative to control
# [2] = molecular target: Tyrosine-protein kinase CSK (Homo sapiens) (UniProt P41240); assay: Inhibition of T7 bacteriophage fused human CSK at 10 uM by KINOMEscan analysis relative to control; values are per cent of control
# [3] = molecular target: Homeodomain-interacting protein kinase 2 (Homo sapiens) (UniProt Q9H2X6); assay: Inhibition of T7 bacteriophage fused human HIPK2 at 10 uM by KINOMEscan analysis relative to control
# [4] = molecular target: Ephrin type-A receptor 7 (Homo sapiens) (UniProt Q15375); assay: Inhibition of T7 bacteriophage fused human EPHA7 at 10 uM by KINOMEscan analysis relative to control; values are per cent of control
# [5] = molecular target: Mitogen-activated protein kinase kinase kinase 2 (Homo sapiens) (UniProt Q9Y2U5); assay: Inhibition of T7 bacteriophage fused human MAP3K2 at 10 uM by KINOMEscan analysis relative to control; values are per cent of control
# [6] = molecular target: Phosphatidylinositol 3-kinase C2 domain-containing subunit gamma (Homo sapiens) (UniProt O75747); assay: Inhibition of T7 bacteriophage fused human PIK3C2G at 10 uM by KINOMEscan analysis relative to control
# [7] = molecular target: Serine/threonine-protein kinase pim-1 (Homo sapiens) (UniProt P11309); assay: Inhibition of T7 bacteriophage fused human PIM1 at 10 uM by KINOMEscan analysis relative to control
# [8] = molecular target: MAP/microtubule affinity-regulating kinase 4 (Homo sapiens) (UniProt Q96L34); assay: Inhibition of T7 bacteriophage fused human MARK4 at 10 uM by KINOMEscan analysis relative to control; values are per cent of control
# [9] = molecular target: Serine/threonine-protein kinase B-raf (Homo sapiens) (UniProt P15056); assay: Inhibition of T7 bacteriophage fused human BRAF at 10 uM by KINOMEscan analysis relative to control
# [10] = molecular target: Serine/threonine-protein kinase Nek4 (Homo sapiens) (UniProt P51957); assay: Inhibition of T7 bacteriophage fused human NEK4 at 10 uM by KINOMEscan analysis relative to control; values are per cent of control
# [11] = molecular target: Mitogen-activated protein kinase kinase kinase 10 (Homo sapiens) (UniProt Q02779); assay: Inhibition of T7 bacteriophage fused human MLK2 at 10 uM by KINOMEscan analysis relative to control
# [12] = molecular target: Activin receptor type-1B (Homo sapiens) (UniProt P36896); assay: Inhibition of T7 bacteriophage fused human ACVR1B at 10 uM by KINOMEscan analysis relative to control
# [13] = molecular target: cGMP-dependent protein kinase 2 (Homo sapiens) (UniProt Q13237); assay: Inhibition of T7 bacteriophage fused human PRKG2 at 10 uM by KINOMEscan analysis relative to control
# [14] = molecular target: Serine/threonine-protein kinase Nek11 (Homo sapiens) (UniProt Q8NG66); assay: Inhibition of T7 bacteriophage fused human NEK11 at 10 uM by KINOMEscan analysis relative to control
# [15] = molecular target: Bone morphogenetic protein receptor type-1A (Homo sapiens) (UniProt P36894); assay: Inhibition of T7 bacteriophage fused human BMPR1A at 10 uM by KINOMEscan analysis relative to control
# [16] = molecular target: Serine/threonine-protein kinase Nek9 (Homo sapiens) (UniProt Q8TD19); assay: Inhibition of T7 bacteriophage fused human NEK9 at 10 uM by KINOMEscan analysis relative to control
# [17] = molecular target: Tyrosine-protein kinase HCK (Homo sapiens) (UniProt P08631); assay: Inhibition of T7 bacteriophage fused human HCK at 10 uM by KINOMEscan analysis relative to control
# [18] = molecular target: Mitogen-activated protein kinase kinase kinase 5 (Homo sapiens) (UniProt Q99683); assay: Inhibition of T7 bacteriophage fused human ASK1 at 10 uM by KINOMEscan analysis relative to control
# [19] = molecular target: Aurora kinase B (Homo sapiens) (UniProt Q96GD4); assay: Inhibition of T7 bacteriophage fused human AURKB at 10 uM by KINOMEscan analysis relative to control
# [20] = molecular target: Mitogen-activated protein kinase 10 (Homo sapiens) (UniProt P53779); assay: Inhibition of T7 bacteriophage fused human JNK3 at 10 uM by KINOMEscan analysis relative to control; values are per cent of control
# [21] = molecular target: Vascular endothelial growth factor receptor 1 (Homo sapiens) (UniProt P17948); assay: Inhibition of T7 bacteriophage fused human FLT1 at 10 uM by KINOMEscan analysis relative to control
# [22] = tested on: Proto-oncogene tyrosine-protein kinase receptor Ret (Homo sapiens), P07949 [V804L]; assay: Inhibition of T7 bacteriophage fused human RET V804L mutant at 10 uM by KINOMEscan analysis relative to control
# [23] = molecular target: Mitogen-activated protein kinase 14 (Homo sapiens) (UniProt Q16539); assay: Inhibition of T7 bacteriophage fused human p38-alpha at 10 uM by KINOMEscan analysis relative to control; values are per cent of control
# [24] = molecular target: Mitogen-activated protein kinase kinase kinase 4 (Homo sapiens) (UniProt Q9Y6R4); assay: Inhibition of T7 bacteriophage fused human MAP3K4 at 10 uM by KINOMEscan analysis relative to control
# [25] = molecular target: cAMP-dependent protein kinase catalytic subunit beta (Homo sapiens) (UniProt P22694); assay: Inhibition of T7 bacteriophage fused human PKAC-beta at 10 uM by KINOMEscan analysis relative to control
# [26] = molecular target: Dual specificity protein kinase CLK4 (Homo sapiens) (UniProt Q9HAZ1); assay: Inhibition of T7 bacteriophage fused human CLK4 at 10 uM by KINOMEscan analysis relative to control
# [27] = molecular target: Serine/threonine-protein kinase Nek5 (Homo sapiens) (UniProt Q6P3R8); assay: Inhibition of T7 bacteriophage fused human NEK5 at 10 uM by KINOMEscan analysis relative to control
# [28] = tested on: Tyrosine-protein kinase ABL1 (Homo sapiens), P00519 [F317L]; assay: Inhibition of T7 bacteriophage fused human nonphosphorylated ABL1 F317L mutant at 10 uM by KINOMEscan analysis relative to control
# [29] = molecular target: Death-associated protein kinase 1 (Homo sapiens) (UniProt P53355); assay: Inhibition of T7 bacteriophage fused human DAPK1 at 10 uM by KINOMEscan analysis relative to control; values are per cent of control
# [30] = molecular target: Mitogen-activated protein kinase kinase kinase 3 (Homo sapiens) (UniProt Q99759); assay: Inhibition of T7 bacteriophage fused human MAP3K3 at 10 uM by KINOMEscan analysis relative to control
# Sequence of Death-associated protein kinase 1 (Homo sapiens) (P53355 whole entry, looked up, the tested form may be a part): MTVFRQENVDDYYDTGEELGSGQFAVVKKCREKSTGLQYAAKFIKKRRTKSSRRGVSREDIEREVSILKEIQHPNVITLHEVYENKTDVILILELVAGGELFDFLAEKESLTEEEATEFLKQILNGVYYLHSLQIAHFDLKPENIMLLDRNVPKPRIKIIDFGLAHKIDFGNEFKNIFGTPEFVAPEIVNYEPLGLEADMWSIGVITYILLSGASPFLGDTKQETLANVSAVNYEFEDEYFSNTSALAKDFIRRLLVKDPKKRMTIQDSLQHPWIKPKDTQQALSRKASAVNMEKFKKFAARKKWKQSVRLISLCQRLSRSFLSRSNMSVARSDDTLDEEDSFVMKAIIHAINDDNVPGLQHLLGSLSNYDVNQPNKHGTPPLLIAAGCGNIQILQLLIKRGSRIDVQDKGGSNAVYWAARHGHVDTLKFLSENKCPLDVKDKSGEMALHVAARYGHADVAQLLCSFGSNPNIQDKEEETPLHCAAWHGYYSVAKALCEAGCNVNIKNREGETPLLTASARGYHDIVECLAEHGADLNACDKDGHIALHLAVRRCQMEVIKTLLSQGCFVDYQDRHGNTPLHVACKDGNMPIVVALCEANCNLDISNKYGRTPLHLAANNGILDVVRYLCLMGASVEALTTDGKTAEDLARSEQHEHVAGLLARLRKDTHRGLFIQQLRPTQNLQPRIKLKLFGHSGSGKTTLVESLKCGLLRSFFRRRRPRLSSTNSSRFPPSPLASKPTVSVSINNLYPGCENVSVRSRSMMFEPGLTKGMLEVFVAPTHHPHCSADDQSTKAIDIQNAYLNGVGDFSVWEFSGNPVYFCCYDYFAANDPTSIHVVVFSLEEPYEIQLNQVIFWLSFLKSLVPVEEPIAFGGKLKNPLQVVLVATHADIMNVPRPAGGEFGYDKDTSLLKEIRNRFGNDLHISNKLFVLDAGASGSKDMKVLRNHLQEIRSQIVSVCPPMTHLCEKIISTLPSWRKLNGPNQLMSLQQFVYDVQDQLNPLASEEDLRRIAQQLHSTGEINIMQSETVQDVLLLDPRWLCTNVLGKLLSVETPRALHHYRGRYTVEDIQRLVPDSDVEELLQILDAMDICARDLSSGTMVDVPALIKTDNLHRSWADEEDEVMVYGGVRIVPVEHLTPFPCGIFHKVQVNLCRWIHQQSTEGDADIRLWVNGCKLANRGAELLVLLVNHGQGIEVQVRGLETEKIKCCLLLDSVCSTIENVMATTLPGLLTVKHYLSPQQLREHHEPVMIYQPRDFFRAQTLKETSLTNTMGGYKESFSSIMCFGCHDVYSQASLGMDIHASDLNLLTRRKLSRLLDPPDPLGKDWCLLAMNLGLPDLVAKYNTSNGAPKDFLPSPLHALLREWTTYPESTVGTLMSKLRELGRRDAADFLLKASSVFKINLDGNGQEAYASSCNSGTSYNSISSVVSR
# Sequence of Ephrin type-A receptor 7 (Homo sapiens) (Q15375 28-998 limits assumed): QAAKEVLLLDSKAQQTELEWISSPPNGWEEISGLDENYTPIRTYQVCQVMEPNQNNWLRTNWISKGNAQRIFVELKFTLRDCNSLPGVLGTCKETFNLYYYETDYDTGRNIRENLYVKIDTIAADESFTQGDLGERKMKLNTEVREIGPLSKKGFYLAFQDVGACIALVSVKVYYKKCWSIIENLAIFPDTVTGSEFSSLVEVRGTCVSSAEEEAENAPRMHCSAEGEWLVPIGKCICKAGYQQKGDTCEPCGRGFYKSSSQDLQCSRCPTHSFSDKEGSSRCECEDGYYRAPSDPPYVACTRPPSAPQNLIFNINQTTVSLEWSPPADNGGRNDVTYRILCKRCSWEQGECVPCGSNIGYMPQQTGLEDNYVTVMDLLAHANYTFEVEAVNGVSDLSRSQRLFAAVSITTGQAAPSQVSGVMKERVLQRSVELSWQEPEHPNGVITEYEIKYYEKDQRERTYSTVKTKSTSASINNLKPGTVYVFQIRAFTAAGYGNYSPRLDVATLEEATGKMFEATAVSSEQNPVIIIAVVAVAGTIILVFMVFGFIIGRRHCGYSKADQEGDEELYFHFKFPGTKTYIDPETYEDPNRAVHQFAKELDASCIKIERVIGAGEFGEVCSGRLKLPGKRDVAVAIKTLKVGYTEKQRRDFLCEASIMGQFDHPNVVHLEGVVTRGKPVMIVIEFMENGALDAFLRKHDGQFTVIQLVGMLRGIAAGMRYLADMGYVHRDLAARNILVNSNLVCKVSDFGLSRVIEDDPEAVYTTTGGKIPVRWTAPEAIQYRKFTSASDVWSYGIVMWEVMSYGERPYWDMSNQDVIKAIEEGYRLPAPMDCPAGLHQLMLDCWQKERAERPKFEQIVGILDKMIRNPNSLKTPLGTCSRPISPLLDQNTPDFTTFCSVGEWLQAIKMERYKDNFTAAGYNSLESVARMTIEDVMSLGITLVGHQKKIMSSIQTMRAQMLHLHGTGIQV
# Sequence of Tyrosine-protein kinase ABL1 (Homo sapiens), P00519 [F317L] (P00519 whole entry F317L, the tested form may be a part): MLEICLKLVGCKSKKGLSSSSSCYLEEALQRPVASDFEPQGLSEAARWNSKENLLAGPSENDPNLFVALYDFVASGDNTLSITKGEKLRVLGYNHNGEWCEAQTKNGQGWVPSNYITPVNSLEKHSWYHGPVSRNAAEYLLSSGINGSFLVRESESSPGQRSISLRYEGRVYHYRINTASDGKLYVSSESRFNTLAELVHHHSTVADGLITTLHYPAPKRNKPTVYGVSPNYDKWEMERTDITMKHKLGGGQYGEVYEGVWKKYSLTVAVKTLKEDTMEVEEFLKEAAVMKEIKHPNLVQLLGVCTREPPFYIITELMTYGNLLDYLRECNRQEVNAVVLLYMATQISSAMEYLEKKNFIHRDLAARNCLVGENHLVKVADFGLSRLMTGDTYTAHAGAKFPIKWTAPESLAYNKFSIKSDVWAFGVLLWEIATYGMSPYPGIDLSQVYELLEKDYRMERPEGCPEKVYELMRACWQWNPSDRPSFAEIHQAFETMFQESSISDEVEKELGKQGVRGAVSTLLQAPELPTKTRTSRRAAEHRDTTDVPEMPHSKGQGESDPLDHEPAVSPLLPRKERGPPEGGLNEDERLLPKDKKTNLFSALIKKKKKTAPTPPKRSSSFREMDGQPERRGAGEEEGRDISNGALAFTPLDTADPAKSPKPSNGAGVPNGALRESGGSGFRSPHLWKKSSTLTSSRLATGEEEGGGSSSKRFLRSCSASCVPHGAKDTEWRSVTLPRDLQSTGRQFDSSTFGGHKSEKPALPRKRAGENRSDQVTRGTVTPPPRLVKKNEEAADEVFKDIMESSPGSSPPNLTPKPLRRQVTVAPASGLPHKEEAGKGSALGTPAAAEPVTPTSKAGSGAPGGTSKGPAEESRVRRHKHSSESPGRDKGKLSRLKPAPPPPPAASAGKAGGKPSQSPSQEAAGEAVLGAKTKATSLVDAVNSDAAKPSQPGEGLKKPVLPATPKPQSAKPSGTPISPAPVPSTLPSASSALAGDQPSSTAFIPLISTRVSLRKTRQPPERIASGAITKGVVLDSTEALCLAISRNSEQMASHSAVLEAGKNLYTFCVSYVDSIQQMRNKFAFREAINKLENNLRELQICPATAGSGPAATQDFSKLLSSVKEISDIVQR
# Sequence of Serine/threonine-protein kinase Nek11 (Homo sapiens) (Q8NG66 whole entry, the tested form may be a part): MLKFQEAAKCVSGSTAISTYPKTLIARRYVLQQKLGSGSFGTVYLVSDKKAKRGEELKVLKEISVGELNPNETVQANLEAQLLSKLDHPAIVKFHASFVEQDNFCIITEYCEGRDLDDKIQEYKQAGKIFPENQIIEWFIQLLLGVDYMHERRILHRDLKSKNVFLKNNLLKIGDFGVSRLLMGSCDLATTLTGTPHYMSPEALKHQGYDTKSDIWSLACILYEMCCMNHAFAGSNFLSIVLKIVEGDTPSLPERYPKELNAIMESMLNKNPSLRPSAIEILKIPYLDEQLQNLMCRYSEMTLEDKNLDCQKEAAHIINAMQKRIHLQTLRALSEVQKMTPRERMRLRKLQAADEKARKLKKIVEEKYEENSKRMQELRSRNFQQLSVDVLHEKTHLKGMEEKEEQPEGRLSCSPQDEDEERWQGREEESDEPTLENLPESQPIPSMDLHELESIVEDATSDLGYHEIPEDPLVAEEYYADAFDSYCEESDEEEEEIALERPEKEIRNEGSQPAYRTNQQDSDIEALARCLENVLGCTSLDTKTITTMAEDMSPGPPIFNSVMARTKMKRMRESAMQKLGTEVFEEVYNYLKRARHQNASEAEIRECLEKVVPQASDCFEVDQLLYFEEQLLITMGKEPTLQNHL
# Sequence of Tyrosine-protein kinase HCK (Homo sapiens) (P08631 2-526 limits assumed): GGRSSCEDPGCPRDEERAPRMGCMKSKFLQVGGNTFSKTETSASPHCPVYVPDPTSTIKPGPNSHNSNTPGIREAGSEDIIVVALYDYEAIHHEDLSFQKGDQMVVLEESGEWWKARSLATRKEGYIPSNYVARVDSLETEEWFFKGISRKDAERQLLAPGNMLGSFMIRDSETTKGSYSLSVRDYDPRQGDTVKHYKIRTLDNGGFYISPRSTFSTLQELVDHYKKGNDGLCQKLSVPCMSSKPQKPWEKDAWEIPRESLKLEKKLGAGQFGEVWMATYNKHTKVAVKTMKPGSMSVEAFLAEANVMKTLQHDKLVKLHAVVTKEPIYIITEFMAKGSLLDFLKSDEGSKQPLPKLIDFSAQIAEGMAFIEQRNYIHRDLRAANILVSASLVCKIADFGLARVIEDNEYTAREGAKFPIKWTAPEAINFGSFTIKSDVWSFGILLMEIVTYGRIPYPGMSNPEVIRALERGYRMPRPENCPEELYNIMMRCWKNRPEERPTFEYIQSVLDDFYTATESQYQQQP
# Sequence of Mitogen-activated protein kinase 14 (Homo sapiens) (Q16539 whole entry, the tested form may be a part): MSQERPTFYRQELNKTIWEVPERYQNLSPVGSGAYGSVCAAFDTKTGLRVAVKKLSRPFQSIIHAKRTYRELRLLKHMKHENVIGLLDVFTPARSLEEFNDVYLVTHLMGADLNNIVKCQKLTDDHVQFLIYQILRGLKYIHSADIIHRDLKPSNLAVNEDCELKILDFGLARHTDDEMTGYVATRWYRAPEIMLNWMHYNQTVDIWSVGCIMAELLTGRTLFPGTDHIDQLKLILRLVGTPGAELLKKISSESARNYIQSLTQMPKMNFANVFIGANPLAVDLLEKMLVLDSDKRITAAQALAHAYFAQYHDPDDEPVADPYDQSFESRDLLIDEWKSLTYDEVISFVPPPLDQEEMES
compound,measurement,setting,value
COc1cc(N2CCC(N3CCN(C)CC3)CC2)ccc1Nc1ncc2c(n1)N(C)c1ccccc1C(=O)N2C,inhibition,[1],71%
same,residual activity,[2],90%
same,inhibition,[3],88%
same,residual activity,[4],97%
same,residual activity,[5],97%
same,inhibition,[6],100%
same,inhibition,[7],100%
same,residual activity,[8],78%
same,inhibition,[9],81%
same,residual activity,[10],95%
same,inhibition,[11],100%
same,inhibition,[12],100%
same,inhibition,[13],74%
same,inhibition,[14],100%
same,inhibition,[15],100%
same,inhibition,[16],100%
same,inhibition,[17],100%
same,inhibition,[18],100%
same,inhibition,[19],38%
same,residual activity,[20],77%
same,inhibition,[21],100%
same,inhibition,[22],89%
same,residual activity,[23],87%
same,inhibition,[24],100%
same,inhibition,[25],100%
same,inhibition,[26],54%
same,inhibition,[27],100%
same,inhibition,[28],14%
same,residual activity,[29],73%
same,inhibition,[30],97%
